What was measured:
Experiment in all cases: radiometric filter-binding kinase assay, Kinase HotSpot
Conditions in all cases: compound 0.5 µM; ATP 10 µM
TEK (human) = TEK (human) (UniProt Q02763)
KIT (human) = KIT (human) (UniProt P10721)
MYO3B (human) = MYO3B (human) (UniProt Q8WXR4)
SRPK1 (human) = SRPK1 (human) (UniProt Q96SB4)
MAPKAPK2 (human) = MAPKAPK2 (human) (UniProt P49137)
RPS6KB2 (human) = RPS6KB2 (human) (UniProt Q9UBS0)
PAK6 (human) = PAK6 (human) (UniProt Q9NQU5)
FER (human) = FER (human) (UniProt P16591)
PRKCD (human) = PRKCD (human) (UniProt Q05655)
PRKD3 (human) = PRKD3 (human) (UniProt O94806)
Chain of PRKD3 (human) (O94806 whole entry, looked up): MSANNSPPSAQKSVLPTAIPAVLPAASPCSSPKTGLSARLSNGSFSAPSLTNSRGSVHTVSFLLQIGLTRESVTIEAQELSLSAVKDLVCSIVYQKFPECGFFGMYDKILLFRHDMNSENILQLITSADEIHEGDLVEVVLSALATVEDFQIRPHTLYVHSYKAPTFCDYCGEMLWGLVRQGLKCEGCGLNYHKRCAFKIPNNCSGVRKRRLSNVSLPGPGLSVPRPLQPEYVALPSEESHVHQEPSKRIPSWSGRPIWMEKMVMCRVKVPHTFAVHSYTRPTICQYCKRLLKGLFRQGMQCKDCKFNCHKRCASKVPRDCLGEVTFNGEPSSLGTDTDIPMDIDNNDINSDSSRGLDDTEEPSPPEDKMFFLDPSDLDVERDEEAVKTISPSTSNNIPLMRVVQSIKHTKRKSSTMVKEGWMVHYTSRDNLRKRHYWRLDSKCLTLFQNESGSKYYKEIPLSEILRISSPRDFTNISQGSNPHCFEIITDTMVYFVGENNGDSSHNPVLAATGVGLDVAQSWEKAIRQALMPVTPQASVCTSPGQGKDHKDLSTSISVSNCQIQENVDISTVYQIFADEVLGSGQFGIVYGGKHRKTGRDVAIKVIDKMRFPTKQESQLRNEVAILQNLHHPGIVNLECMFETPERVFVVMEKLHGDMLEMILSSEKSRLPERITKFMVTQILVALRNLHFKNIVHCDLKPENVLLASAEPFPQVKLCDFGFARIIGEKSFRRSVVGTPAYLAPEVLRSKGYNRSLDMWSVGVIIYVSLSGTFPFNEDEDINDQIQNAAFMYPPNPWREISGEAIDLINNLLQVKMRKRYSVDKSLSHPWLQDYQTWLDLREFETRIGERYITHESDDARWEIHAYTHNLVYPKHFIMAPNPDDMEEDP

GSK3B (human) = GSK3B (human) (UniProt P49841)
NUAK1 (human) = NUAK1 (human) (UniProt O60285)
NEK4 (human) = NEK4 (human) (UniProt P51957)
EPHA6 (human) = EPHA6 (human) (UniProt Q9UF33)
PASK (human) = PASK (human) (UniProt Q96RG2)
Chain of PASK (human) (Q96RG2 whole entry, looked up): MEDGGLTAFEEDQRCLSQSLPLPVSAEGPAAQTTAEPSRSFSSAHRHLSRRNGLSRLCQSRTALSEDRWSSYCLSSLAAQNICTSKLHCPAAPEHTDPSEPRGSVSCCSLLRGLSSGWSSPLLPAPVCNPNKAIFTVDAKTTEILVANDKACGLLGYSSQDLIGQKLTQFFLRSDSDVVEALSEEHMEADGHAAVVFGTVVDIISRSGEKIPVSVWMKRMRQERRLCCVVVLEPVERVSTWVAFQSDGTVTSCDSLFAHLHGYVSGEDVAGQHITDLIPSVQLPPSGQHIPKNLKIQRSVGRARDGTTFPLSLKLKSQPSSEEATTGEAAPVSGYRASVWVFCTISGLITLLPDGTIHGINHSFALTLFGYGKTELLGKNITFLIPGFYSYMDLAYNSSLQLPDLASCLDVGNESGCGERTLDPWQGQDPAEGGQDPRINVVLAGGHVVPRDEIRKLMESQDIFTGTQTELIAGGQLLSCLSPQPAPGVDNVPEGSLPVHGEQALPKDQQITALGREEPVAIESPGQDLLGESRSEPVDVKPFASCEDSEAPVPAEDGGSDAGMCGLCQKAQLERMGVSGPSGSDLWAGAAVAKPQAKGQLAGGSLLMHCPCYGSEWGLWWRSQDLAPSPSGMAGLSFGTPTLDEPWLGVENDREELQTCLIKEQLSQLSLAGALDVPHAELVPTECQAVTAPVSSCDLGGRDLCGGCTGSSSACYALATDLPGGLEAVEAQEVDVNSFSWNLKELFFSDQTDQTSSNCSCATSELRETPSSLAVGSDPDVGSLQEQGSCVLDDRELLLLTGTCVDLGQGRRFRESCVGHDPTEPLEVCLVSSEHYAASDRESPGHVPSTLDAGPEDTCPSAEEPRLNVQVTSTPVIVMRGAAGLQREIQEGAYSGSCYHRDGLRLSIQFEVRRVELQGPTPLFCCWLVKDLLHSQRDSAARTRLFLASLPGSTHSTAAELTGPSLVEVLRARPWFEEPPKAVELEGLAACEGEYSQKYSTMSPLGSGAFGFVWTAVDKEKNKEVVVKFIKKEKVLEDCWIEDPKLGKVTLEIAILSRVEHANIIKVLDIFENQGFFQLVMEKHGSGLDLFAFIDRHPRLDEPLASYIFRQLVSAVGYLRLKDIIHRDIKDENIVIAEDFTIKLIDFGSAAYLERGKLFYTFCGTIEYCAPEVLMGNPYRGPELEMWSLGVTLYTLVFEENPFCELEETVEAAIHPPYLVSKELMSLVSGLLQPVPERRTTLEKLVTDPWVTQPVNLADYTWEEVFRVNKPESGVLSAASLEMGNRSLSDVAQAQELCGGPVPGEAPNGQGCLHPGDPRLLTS

MAP3K3 (human) = MAP3K3 (human) (UniProt Q99759)
STK38 (human) = STK38 (human) (UniProt Q15208)
FGFR2 (human) = FGFR2 (human) (UniProt P21802)
Chain of FGFR2 (human) (P21802 whole entry, looked up): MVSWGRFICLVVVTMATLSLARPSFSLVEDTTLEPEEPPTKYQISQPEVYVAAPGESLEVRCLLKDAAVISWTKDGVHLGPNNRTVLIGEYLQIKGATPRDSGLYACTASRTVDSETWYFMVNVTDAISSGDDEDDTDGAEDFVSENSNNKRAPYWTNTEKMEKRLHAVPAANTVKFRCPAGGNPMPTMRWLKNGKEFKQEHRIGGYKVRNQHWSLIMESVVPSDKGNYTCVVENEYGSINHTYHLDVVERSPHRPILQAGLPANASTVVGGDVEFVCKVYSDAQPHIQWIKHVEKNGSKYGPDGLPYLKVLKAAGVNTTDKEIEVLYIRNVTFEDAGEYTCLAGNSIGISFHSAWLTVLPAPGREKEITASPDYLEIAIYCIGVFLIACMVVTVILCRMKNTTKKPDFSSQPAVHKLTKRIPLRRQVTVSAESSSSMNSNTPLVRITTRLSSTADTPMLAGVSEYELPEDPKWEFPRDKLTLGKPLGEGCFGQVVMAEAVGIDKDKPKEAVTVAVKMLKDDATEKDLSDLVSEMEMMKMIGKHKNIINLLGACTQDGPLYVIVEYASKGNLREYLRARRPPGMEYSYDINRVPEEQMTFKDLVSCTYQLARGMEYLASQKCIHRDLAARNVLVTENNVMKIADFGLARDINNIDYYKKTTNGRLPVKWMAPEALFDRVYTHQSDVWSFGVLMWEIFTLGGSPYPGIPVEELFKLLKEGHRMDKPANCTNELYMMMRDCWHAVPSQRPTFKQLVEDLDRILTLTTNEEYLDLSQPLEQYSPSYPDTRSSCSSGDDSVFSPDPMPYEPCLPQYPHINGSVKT

ERBB4 (human) = ERBB4 (human) (UniProt Q15303)
AURKB (human) = AURKB (human) (UniProt Q96GD4)
Chain of AURKB (human) (Q96GD4 whole entry, looked up): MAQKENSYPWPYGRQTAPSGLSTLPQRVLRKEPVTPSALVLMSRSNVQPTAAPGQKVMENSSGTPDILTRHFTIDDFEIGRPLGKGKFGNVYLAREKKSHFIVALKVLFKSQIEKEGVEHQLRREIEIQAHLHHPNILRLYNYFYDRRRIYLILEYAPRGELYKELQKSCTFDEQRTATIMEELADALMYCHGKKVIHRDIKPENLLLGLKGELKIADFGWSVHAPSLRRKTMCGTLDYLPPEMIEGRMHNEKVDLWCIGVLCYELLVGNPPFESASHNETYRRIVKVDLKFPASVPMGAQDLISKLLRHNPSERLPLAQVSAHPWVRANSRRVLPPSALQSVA

CSNK1G1 (human) = CSNK1G1 (human) (UniProt Q9HCP0)
DAPK1 (human) = DAPK1 (human) (UniProt P53355)
PTK6 (human) = PTK6 (human) (UniProt Q13882)
PIM1 (human) = PIM1 (human) (UniProt P11309)
MERTK (human) = MERTK (human) (UniProt Q12866)
MAP3K5 (human) = MAP3K5 (human) (UniProt Q99683)
CDK5 CDK5R1 p35 (human) = CDK5 CDK5R1 p35 (human) (UniProt Q00535+Q15078)
PRKCB2 (human) = PRKCB2 (human) (UniProt P05771)
BRAF (human) = BRAF (human) (UniProt P15056)
DDR2 (human) = DDR2 (human) (UniProt Q16832)
PRKACG (human) = PRKACG (human) (UniProt P22612)
CHUK (human) = CHUK (human) (UniProt O15111)
FGFR3 (human) = FGFR3 (human) (UniProt P22607)
ULK3 (human) = ULK3 (human) (UniProt Q6PHR2)
RPS6KA2 KD1 KD2 (human) = RPS6KA2 KD1 KD2 (human) (UniProt Q15349)
Chain of RPS6KA2 KD1 KD2 (human) (Q15349 whole entry, looked up): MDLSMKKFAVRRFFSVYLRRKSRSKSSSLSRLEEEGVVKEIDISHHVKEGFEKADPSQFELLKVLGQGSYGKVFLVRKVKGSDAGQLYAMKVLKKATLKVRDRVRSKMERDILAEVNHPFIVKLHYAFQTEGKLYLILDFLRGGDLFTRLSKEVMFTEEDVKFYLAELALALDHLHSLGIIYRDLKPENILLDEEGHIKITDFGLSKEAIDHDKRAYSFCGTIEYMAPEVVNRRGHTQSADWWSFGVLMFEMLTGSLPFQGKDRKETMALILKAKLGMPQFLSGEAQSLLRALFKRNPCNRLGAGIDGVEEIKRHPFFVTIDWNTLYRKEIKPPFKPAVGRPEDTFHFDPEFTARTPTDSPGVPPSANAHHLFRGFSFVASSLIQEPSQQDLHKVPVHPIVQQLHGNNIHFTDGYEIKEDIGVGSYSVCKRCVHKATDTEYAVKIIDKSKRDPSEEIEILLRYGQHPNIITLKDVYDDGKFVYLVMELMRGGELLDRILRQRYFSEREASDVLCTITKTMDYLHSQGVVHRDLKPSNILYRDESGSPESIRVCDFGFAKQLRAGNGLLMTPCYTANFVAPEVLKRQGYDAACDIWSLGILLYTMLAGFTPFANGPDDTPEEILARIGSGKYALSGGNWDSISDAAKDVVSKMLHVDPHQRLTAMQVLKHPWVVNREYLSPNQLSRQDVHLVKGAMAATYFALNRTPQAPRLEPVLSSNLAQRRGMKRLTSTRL

CDC42BPB (human) = CDC42BPB (human) (UniProt Q9Y5S2)
ACVR1 (human) = ACVR1 (human) (UniProt Q04771)
Chain of ACVR1 (human) (Q04771 whole entry, looked up): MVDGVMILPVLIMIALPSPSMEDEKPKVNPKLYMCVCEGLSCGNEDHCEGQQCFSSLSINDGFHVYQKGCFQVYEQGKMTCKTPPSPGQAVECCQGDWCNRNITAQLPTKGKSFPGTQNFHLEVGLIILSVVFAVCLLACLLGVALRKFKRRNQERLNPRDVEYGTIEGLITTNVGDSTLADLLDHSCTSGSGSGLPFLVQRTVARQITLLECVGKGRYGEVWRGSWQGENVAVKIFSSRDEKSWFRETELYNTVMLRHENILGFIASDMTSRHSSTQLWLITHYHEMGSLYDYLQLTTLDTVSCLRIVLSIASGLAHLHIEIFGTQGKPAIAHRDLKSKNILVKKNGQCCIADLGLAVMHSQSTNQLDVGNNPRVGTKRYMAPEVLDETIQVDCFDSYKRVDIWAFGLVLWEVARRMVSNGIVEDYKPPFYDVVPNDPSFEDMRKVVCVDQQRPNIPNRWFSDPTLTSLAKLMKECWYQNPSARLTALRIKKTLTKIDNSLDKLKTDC

MAPK14 (human) = MAPK14 (human) (UniProt Q16539)
Chain of MAPK14 (human) (Q16539 whole entry, looked up): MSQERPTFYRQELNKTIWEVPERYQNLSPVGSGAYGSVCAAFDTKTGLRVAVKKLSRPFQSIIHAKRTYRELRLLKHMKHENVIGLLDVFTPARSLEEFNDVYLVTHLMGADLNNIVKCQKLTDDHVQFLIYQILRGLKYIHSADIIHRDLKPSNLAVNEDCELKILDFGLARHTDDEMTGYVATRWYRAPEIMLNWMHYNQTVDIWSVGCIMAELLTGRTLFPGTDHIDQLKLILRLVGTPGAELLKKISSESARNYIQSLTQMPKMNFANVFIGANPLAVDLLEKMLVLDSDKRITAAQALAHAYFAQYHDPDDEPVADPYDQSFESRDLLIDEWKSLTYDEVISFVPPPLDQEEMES

TLK2 (human) = TLK2 (human) (UniProt Q86UE8)
CLK2 (human) = CLK2 (human) (UniProt P49760)
LCK (human) = LCK (human) (UniProt P06239)

COc1cc2c(cc1OC)-c1[nH]nc(Nc3cccc(F)c3)c1C2
residual activity (TEK (human)): 92.5%
residual activity (KIT (human)): 27.9%
residual activity (MYO3B (human)): 107%
residual activity (SRPK1 (human)): 101%
residual activity (MAPKAPK2 (human)): 97.2%
residual activity (RPS6KB2 (human)): 100%
residual activity (PAK6 (human)): 84.8%
residual activity (FER (human)): 94%
residual activity (PRKCD (human)): 111%
residual activity (PRKD3 (human)): 93.1%
residual activity (GSK3B (human)): 96.6%
residual activity (NUAK1 (human)): 88.5%
residual activity (NEK4 (human)): 101%
residual activity (EPHA6 (human)): 82.7%
residual activity (PASK (human)): 93.3%
residual activity (MAP3K3 (human)): 103%
residual activity (STK38 (human)): 113%
residual activity (FGFR2 (human)): 100%
residual activity (ERBB4 (human)): 96.5%
residual activity (AURKB (human)): 79.2%
residual activity (CSNK1G1 (human)): 77.8%
residual activity (DAPK1 (human)): 90.7%
residual activity (PTK6 (human)): 81%
residual activity (PIM1 (human)): 97.3%
residual activity (MERTK (human)): 78.7%
residual activity (MAP3K5 (human)): 99.9%
residual activity (CDK5 CDK5R1 p35 (human)): 102%
residual activity (PRKCB2 (human)): 103%
residual activity (BRAF (human)): 93.8%
residual activity (DDR2 (human)): 110%
residual activity (PRKACG (human)): 102%
residual activity (CHUK (human)): 91.4%
residual activity (FGFR3 (human)): 99.6%
residual activity (ULK3 (human)): 96.5%
residual activity (RPS6KA2 KD1 KD2 (human)): 91.4%
residual activity (CDC42BPB (human)): 99.2%
residual activity (ACVR1 (human)): 107%
residual activity (MAPK14 (human)): 94.3%
residual activity (TLK2 (human)): 103%
residual activity (CLK2 (human)): 84.3%

COc1cc2c(Nc3ccc(Br)cc3F)ncnc2cc1OCC1CCN(C)CC1
residual activity (TEK (human)): 50.8%
residual activity (KIT (human)): 71.4%
residual activity (MYO3B (human)): 84.2%
residual activity (SRPK1 (human)): 97.9%
residual activity (MAPKAPK2 (human)): 99.5%
residual activity (RPS6KB2 (human)): 101%
residual activity (PAK6 (human)): 105%
residual activity (FER (human)): 95.8%
residual activity (PRKCD (human)): 103%
residual activity (PRKD3 (human)): 91.7%
residual activity (GSK3B (human)): 101%
residual activity (NUAK1 (human)): 92.7%
residual activity (NEK4 (human)): 102%
residual activity (EPHA6 (human)): 3.27%
residual activity (PASK (human)): 102%
residual activity (MAP3K3 (human)): 102%
residual activity (STK38 (human)): 100%
residual activity (FGFR2 (human)): 38.4%
residual activity (ERBB4 (human)): 45.6%
residual activity (AURKB (human)): 95.5%
residual activity (CSNK1G1 (human)): 100%
residual activity (DAPK1 (human)): 105%
residual activity (PTK6 (human)): 7.28%
residual activity (PIM1 (human)): 95%
residual activity (MERTK (human)): 47.9%
residual activity (MAP3K5 (human)): 102%
residual activity (CDK5 CDK5R1 p35 (human)): 107%
residual activity (PRKCB2 (human)): 91.6%
residual activity (BRAF (human)): 94.8%
residual activity (DDR2 (human)): 68%
residual activity (PRKACG (human)): 106%
residual activity (CHUK (human)): 96.6%
residual activity (ULK3 (human)): 105%
residual activity (RPS6KA2 KD1 KD2 (human)): 85.9%
residual activity (CDC42BPB (human)): 98%
residual activity (ACVR1 (human)): 208%
residual activity (MAPK14 (human)): 91.8%
residual activity (TLK2 (human)): 79.7%
residual activity (CLK2 (human)): 89.7%

COc1cc2c(N3CCN(C(=O)Nc4ccc(OC(C)C)cc4)CC3)ncnc2cc1OCCCN1CCCCC1
residual activity (TEK (human)): 99.6%
residual activity (KIT (human)): 45.1%
residual activity (MYO3B (human)): 88.5%
residual activity (SRPK1 (human)): 98.2%
residual activity (MAPKAPK2 (human)): 100%
residual activity (RPS6KB2 (human)): 102%
residual activity (PAK6 (human)): 101%
residual activity (FER (human)): 104%
residual activity (PRKCD (human)): 101%
residual activity (PRKD3 (human)): 97.3%
residual activity (GSK3B (human)): 98.1%
residual activity (NUAK1 (human)): 104%
residual activity (NEK4 (human)): 90.3%
residual activity (EPHA6 (human)): 103%
residual activity (PASK (human)): 105%
residual activity (MAP3K3 (human)): 106%
residual activity (STK38 (human)): 99.1%
residual activity (FGFR2 (human)): 99.8%
residual activity (ERBB4 (human)): 97.3%
residual activity (AURKB (human)): 89.6%
residual activity (CSNK1G1 (human)): 98%
residual activity (LCK (human)): 87.1%
residual activity (DAPK1 (human)): 103%
residual activity (PTK6 (human)): 92.9%
residual activity (PIM1 (human)): 97.8%
residual activity (MERTK (human)): 106%
residual activity (MAP3K5 (human)): 96.6%
residual activity (CDK5 CDK5R1 p35 (human)): 99.4%
residual activity (PRKCB2 (human)): 93.1%
residual activity (DDR2 (human)): 102%
residual activity (PRKACG (human)): 108%
residual activity (CHUK (human)): 98.3%
residual activity (FGFR3 (human)): 93.2%
residual activity (ULK3 (human)): 101%
residual activity (RPS6KA2 KD1 KD2 (human)): 98.6%
residual activity (CDC42BPB (human)): 100%
residual activity (ACVR1 (human)): 145%
residual activity (MAPK14 (human)): 94.1%
residual activity (TLK2 (human)): 96.2%
residual activity (CLK2 (human)): 80.7%

From the kinase profiling compilation of Christmann-Franck et al. (2016)
